The target of the experiment is Sodium- and chloride-dependent creatine transporter 1 (Homo sapiens) (UniProt P48029). Kind of experiment: creatine transporter SLC6A8 activation, membrane depolarization – cell-based, membrane potential dye, HEK-293 JumpIN, SLC6A8 overexpression, dose response (AID 1794823). The conditions noted are these: HEK-293 JumpIN SLC6A8, FLIPR membrane potential fluorescence.
Sequence of Sodium- and chloride-dependent creatine transporter 1 (Homo sapiens) (P48029 whole entry, looked up): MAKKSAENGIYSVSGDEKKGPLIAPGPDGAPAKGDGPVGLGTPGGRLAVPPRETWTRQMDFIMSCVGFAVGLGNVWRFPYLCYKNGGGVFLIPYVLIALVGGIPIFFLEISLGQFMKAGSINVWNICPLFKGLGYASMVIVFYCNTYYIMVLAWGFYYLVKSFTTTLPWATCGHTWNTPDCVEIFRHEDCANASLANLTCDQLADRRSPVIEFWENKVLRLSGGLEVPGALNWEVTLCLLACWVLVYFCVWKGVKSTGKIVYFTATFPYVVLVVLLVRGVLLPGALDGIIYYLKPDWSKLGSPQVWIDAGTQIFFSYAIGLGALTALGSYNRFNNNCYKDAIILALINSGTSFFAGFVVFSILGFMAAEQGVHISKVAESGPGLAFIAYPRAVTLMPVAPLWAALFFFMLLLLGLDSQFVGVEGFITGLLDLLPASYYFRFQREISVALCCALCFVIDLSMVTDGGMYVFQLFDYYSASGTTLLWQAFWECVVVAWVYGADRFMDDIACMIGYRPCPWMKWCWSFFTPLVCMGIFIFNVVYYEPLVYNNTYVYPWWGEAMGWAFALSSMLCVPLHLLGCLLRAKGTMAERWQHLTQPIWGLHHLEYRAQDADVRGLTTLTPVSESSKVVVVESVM

As for `CN(CC(=O)O)C(=N)N`, the EC50 is 5 µM.

The values are drawn from PubChem BioAssay AID1794823.
